Values quoted from earlier work, collected in US20110091889A1, “CENTROSOME-ASSAY” (4SC AG, priority 2008, published 2011).

Target: T1, Eg5 (Homo sapiens, UniProt P52732)
T1 sequence (P52732 1-1056): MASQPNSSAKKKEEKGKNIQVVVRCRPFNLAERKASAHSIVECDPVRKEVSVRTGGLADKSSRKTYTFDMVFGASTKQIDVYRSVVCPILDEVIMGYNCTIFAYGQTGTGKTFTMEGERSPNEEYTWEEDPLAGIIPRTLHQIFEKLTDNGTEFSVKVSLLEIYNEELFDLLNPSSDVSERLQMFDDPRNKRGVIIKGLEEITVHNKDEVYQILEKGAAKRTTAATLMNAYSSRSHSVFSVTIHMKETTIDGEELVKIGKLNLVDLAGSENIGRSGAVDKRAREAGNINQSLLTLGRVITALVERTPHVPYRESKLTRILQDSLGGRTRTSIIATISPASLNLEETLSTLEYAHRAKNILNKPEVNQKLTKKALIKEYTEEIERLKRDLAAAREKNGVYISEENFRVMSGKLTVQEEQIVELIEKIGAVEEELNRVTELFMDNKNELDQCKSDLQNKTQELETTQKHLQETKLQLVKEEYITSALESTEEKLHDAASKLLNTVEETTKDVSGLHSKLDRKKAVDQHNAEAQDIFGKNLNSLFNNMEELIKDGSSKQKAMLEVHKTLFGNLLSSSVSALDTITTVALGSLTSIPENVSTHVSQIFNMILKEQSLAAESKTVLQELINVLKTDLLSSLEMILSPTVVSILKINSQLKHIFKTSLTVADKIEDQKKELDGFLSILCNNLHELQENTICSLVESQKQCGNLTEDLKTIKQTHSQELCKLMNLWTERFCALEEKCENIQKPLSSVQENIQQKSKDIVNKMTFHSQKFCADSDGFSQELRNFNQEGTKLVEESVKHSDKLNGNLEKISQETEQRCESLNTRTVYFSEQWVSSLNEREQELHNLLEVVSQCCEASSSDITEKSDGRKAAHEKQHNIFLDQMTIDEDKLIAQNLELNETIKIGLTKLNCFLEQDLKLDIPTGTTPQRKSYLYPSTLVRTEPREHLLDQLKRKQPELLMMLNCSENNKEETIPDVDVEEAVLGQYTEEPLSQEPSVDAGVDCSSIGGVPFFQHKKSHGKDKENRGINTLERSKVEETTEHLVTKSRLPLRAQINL
Conditions: as compared to the (R)-enantiomer; in vitro and in vivo

SMILES: CCOC(=O)C1=C(C)NC(=S)N[C@H]1c1cccc(O)c1 [(S)-monastrol]
- relative potency as inhibitor of Eg5 activity: more potent inhibitor of Eg5 activity
